# Key:
# [1] = target: Serine/threonine-protein kinase NLK (Homo sapiens) (UniProt Q9UBE8); assay: Inhibition of human NLK at 10 uM after 60 mins by TR-FRET assay; values are per cent of control
# [2] = target: Dual specificity mitogen-activated protein kinase kinase 1 (Homo sapiens) (UniProt Q02750); assay: Inhibition of human MEK1 at 10 uM after 60 mins by TR-FRET assay; values are per cent of control
# [3] = target: Mitogen-activated protein kinase 10 (Homo sapiens, UniProt P53779); assay: Inhibition of recombinant JNK3 after 60 mins by TR-FRET assay
# [4] = target: Dual specificity protein kinase CLK1 (Homo sapiens) (UniProt P49759); assay: Inhibition of CLK1 at 10 uM after 60 mins by TR-FRET assay
# [5] = target: Macrophage colony-stimulating factor 1 receptor (Homo sapiens) (UniProt P07333); assay: Inhibition of CSF1R at 10 uM after 60 mins by TR-FRET assay
# [6] = target: Tyrosine-protein kinase JAK1 (Homo sapiens) (UniProt P23458); assay: Inhibition of JAK1 at 10 uM after 60 mins by TR-FRET assay
# [7] = target: PI3-kinase p110-alpha/p85-alpha (Homo sapiens) (UniProt P27986+P42336); assay: Inhibition of p110alpha/p85alpha at 10 uM after 60 mins by TR-FRET assay; format: protein-complex assay
# [8] = target: Serine/threonine-protein kinase 16 (Homo sapiens) (UniProt O75716); assay: Inhibition of STK16 at 10 uM after 60 mins by TR-FRET assay
# [9] = target: T1, Serine/threonine-protein kinase 3 (Homo sapiens) (UniProt Q13188); assay: Inhibition of STK3 at 10 uM after 60 mins by TR-FRET assay
# T1 sequence (whole entry): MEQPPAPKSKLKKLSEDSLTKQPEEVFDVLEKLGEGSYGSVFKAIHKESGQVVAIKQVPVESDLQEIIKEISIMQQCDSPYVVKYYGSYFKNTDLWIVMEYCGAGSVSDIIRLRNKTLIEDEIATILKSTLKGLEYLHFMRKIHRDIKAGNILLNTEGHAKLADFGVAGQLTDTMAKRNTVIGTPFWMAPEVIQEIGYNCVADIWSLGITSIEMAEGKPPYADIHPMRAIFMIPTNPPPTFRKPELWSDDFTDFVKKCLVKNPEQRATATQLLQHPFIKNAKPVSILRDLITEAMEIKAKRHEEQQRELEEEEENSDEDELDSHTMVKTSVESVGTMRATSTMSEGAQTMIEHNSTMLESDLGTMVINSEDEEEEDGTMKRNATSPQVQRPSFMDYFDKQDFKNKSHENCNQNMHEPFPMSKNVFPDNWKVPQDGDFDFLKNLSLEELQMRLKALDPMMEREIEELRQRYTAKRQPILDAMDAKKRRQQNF
# [10] = target: T2, Dual specificity protein kinase TTK (Homo sapiens) (UniProt P33981); assay: Inhibition of TTK at 10 uM after 60 mins by TR-FRET assay
# T2 sequence (whole entry): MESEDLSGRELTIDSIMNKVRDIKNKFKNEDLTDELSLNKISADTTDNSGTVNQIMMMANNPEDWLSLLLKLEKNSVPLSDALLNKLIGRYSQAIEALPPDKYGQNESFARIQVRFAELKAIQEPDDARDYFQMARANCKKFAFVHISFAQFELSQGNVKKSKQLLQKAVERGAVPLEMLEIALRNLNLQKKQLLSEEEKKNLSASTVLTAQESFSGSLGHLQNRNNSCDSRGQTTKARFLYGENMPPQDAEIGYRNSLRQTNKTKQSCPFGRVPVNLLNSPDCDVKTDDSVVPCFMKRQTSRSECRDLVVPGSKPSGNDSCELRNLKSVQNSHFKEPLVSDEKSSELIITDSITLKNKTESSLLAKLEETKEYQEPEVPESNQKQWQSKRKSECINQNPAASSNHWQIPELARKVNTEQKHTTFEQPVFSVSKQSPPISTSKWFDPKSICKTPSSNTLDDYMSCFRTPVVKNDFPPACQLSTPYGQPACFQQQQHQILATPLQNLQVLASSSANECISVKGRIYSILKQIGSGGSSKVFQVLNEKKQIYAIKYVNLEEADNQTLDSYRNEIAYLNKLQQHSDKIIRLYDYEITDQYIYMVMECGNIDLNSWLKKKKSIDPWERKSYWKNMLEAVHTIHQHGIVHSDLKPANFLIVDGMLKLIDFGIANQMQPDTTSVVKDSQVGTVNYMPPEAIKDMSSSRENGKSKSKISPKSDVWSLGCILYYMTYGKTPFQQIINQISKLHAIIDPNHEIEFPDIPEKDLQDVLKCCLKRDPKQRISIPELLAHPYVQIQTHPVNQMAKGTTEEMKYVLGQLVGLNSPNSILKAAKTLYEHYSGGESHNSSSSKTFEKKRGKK
# [11] = Apparent permeability of the compound from apical to basolateral direction in MDCK2 cells at 5 uM after 120 mins; format: ADME, cell-based, Canis lupus familiaris, MDCK-II; conditions: dog, MDCK
# [12] = Efflux ratio, ratio of permeability from apical to basolateral in MDCK2 cells over expressing MDR1 in presence of P-gp inhibitor to permeability from apical to basolateral in MDCK2 cells over expressing MDR1 in absence of P-gp inhibitor at 5 uM after 120 mins; format: ADME, cell-based, Canis lupus familiaris; conditions: dog, mdck-ii, 2 h
# [13] = Oxidative metabolic stability in mouse liver microsomes assessed as compound remaining at 2 uM after 30 mins; format: ADME, Microsome; conditions: read-out: Stability
# [14] = Oxidative metabolic stability in human liver microsomes assessed as compound remaining at 2 uM after 30 mins; format: ADME, Microsome; conditions: read-out: Stability
# [15] = target: T3, Serine/threonine-protein kinase Chk1 (Homo sapiens) (UniProt O14757); assay: Inhibition of CHEK1 at 10 uM after 60 mins by TR-FRET assay
# T3 sequence (whole entry): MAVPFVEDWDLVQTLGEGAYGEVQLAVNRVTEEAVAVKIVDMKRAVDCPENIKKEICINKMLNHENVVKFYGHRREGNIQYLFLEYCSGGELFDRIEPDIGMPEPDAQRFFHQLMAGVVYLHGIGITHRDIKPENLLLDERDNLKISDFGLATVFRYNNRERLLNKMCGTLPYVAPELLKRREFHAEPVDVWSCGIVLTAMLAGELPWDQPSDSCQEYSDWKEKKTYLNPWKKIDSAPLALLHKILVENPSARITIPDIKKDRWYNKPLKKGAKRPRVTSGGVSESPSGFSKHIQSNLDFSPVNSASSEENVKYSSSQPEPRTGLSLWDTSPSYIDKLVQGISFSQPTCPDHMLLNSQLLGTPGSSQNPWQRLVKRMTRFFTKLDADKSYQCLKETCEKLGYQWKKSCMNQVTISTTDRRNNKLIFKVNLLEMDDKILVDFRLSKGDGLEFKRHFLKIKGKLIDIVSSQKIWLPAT
# [16] = target: Serine/threonine-protein kinase PAK 4 (Homo sapiens) (UniProt O96013); assay: Inhibition of PAK4 at 10 uM after 60 mins by TR-FRET assay
# [17] = Neuroprotective activity in human cortical neurons assessed as inhibition of amyloid-beta-induced toxicity after 2 to 3 days; format: functional; conditions: cortical neurone
# Dual specificity protein kinase CLK1 (Homo sapiens), sequence (P49759 whole entry, looked up): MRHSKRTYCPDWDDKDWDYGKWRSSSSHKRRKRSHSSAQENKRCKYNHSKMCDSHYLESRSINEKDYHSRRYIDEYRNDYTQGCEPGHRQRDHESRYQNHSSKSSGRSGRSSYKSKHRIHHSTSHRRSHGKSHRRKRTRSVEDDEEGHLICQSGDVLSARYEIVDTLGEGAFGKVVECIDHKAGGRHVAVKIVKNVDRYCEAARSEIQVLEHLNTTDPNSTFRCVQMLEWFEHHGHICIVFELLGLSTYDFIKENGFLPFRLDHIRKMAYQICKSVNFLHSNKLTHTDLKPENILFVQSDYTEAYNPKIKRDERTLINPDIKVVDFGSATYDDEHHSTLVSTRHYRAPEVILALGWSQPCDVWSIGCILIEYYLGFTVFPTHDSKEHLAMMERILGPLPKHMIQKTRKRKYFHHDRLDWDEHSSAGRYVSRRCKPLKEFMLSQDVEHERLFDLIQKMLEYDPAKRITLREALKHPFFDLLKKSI
# Serine/threonine-protein kinase PAK 4 (Homo sapiens), sequence (O96013 whole entry, looked up): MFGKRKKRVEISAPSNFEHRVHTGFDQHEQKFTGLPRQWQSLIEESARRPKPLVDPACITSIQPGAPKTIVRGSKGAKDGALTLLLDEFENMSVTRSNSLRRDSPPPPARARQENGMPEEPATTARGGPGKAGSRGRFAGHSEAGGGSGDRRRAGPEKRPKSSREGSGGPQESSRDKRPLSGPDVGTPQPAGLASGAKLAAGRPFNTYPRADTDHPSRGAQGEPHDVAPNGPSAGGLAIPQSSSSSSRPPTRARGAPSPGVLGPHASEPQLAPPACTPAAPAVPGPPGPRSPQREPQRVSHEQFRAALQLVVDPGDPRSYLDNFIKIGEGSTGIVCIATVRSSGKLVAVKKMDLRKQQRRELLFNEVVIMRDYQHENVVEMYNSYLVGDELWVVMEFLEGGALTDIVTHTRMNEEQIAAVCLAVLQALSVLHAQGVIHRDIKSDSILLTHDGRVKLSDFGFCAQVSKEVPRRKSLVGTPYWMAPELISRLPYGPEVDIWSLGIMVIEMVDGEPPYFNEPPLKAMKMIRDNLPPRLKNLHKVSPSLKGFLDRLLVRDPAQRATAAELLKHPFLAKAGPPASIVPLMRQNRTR
# Macrophage colony-stimulating factor 1 receptor (Homo sapiens), sequence (P07333 whole entry): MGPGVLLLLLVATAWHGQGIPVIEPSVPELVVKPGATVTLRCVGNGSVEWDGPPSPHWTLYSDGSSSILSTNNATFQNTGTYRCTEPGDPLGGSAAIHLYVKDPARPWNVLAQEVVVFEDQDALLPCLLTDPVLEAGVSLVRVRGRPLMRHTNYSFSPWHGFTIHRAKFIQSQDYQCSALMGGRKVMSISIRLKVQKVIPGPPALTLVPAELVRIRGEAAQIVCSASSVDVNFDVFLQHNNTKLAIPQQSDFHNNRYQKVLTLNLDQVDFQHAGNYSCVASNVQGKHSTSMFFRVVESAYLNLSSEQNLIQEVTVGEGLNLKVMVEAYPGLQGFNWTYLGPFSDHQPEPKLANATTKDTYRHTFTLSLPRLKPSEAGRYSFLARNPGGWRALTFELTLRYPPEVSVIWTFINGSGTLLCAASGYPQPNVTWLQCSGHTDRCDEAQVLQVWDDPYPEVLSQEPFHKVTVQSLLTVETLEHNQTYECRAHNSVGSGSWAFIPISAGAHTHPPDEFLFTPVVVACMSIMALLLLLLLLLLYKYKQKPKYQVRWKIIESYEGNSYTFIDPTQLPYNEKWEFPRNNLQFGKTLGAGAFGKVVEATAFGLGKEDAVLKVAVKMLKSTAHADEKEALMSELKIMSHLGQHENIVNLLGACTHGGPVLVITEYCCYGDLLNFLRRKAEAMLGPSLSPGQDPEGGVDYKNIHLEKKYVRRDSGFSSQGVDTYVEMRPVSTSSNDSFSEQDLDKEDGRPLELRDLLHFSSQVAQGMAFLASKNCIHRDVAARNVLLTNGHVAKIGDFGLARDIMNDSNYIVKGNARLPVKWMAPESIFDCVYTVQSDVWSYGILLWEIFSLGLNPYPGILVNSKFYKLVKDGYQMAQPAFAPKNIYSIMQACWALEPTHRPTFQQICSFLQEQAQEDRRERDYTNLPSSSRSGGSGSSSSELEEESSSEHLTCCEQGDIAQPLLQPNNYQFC
# Tyrosine-protein kinase JAK1 (Homo sapiens), sequence (P23458 whole entry): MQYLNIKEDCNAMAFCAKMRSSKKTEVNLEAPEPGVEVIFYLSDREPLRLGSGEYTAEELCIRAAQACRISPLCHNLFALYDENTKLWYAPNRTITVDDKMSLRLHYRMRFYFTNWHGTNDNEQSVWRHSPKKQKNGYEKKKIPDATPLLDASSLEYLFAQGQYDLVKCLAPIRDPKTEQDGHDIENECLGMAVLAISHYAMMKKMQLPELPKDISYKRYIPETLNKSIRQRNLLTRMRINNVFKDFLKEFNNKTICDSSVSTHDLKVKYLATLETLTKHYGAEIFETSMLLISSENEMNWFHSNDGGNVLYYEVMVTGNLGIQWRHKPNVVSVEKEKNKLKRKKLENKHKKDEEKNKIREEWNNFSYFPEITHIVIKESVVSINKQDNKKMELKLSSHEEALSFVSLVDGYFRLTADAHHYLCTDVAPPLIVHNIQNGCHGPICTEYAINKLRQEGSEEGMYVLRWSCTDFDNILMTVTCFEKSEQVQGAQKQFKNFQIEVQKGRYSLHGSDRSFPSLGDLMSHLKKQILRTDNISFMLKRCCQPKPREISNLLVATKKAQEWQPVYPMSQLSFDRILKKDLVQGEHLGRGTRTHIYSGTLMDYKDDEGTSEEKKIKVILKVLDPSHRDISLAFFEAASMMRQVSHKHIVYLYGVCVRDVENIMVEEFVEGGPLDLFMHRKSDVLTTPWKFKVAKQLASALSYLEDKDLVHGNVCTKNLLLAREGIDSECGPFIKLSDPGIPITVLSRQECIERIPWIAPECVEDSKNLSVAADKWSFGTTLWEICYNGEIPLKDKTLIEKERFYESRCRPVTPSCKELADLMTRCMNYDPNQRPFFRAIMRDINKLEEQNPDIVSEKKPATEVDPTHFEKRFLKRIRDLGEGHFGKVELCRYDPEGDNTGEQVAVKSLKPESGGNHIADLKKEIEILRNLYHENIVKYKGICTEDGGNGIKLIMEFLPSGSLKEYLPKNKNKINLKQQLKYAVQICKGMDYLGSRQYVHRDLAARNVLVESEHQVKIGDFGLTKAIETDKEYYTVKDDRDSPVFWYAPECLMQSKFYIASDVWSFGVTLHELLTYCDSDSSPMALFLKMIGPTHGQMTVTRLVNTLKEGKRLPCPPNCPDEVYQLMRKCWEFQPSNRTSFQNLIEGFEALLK
# Mitogen-activated protein kinase 10, sequence (P53779 whole entry): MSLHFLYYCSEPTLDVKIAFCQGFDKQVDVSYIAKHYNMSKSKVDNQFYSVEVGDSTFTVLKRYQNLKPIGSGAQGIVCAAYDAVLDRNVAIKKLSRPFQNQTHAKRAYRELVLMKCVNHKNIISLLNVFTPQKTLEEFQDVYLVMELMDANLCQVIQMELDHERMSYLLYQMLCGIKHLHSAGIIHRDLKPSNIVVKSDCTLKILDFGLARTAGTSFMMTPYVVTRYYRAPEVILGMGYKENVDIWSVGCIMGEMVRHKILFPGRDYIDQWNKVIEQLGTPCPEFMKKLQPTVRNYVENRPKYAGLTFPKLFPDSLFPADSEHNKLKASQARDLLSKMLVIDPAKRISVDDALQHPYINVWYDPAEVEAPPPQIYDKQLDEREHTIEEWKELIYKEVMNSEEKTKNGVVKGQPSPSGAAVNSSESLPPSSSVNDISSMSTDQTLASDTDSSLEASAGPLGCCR
# Serine/threonine-protein kinase 16 (Homo sapiens), sequence (O75716 whole entry): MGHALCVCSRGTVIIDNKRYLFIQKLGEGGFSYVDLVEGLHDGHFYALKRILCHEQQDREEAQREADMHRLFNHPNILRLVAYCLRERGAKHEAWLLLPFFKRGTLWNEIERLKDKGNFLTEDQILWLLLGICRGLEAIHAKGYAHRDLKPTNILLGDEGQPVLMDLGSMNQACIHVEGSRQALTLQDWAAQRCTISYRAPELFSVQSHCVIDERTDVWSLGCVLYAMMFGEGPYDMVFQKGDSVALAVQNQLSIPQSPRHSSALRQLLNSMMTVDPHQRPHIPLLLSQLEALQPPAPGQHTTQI
# Dual specificity mitogen-activated protein kinase kinase 1 (Homo sapiens), sequence (Q02750 whole entry): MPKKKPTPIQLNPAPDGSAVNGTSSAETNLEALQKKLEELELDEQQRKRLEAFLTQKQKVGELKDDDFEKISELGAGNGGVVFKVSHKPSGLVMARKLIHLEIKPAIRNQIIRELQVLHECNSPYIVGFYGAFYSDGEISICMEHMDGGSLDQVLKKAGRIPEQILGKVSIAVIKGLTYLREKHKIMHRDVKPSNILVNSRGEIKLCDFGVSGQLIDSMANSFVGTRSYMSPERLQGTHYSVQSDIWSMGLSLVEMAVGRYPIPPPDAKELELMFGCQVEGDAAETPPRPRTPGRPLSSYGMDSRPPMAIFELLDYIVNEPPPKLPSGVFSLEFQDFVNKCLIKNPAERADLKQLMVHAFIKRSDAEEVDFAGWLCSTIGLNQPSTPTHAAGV
# Serine/threonine-protein kinase NLK (Homo sapiens), sequence (Q9UBE8 whole entry): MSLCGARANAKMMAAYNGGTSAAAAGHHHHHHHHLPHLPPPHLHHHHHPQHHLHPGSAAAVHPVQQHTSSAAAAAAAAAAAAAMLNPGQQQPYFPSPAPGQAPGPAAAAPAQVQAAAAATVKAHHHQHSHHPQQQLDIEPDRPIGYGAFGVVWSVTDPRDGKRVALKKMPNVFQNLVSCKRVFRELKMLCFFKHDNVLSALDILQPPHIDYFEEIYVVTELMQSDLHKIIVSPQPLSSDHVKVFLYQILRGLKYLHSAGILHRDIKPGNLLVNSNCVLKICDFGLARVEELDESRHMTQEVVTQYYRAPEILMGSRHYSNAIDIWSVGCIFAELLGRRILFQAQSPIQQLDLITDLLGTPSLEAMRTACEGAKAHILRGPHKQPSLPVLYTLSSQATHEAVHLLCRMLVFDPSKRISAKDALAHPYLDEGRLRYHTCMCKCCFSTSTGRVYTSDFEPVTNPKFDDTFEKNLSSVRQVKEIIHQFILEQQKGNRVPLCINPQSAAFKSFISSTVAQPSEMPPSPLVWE
SMILES,residual activity [1] [%],residual activity [2] [%],IC50 [3] [nM],inhibition [4] [%],inhibition [5] [%],inhibition [6] [%],inhibition [7] [%],inhibition [8] [%],inhibition [9] [%],inhibition [10] [%],"Papp A→B at 2 h, 5 µM [11] [×10⁻⁶ cm/s]",Ratio [12],"remaining at 0.5 h, 2 µM [13] [%]","remaining at 0.5 h, 2 µM [14] [%]",inhibition [15] [%],inhibition [16] [%],EC50 [17] [nM]
S=c1[nH]nc(-c2ccncc2)n1-c1ccc2ccccc2c1,114,110,–,–,–,–,–,–,–,–,–,–,–,–,–,–,–
O=c1n(Cc2ccncc2)nc(-c2ccnc(NC3CCCCC3)c2)n1-c1ccc2ccccc2c1,–,–,29,3,1,-4,6,–,5,–,8.1,–,48,2,-9,-1,12000
O=c1n(C2CCOCC2)nc(-c2ccnc(NC3CCCCC3)c2)n1-c1ccc2ccccc2c1,–,–,–,4,7,1,0,–,-10,3,–,–,–,–,-4,27,–
O=c1n(Cc2ccccn2)nc(-c2ccnc(NC3CCOCC3)c2)n1-c1ccc2ccccc2c1,–,–,54,2,4,–,-5,-9,-9,0,18.5,1.4,1.4,40,-9,–,–

# The next lines start with results.
residual activity [1] [%],residual activity [2] [%],IC50 [3] [nM],inhibition [4] [%],inhibition [5] [%],inhibition [6] [%],inhibition [7] [%],inhibition [8] [%],inhibition [9] [%],inhibition [10] [%],"Papp A→B at 2 h, 5 µM [11] [×10⁻⁶ cm/s]",Ratio [12],"remaining at 0.5 h, 2 µM [13] [%]","remaining at 0.5 h, 2 µM [14] [%]",inhibition [15] [%],inhibition [16] [%],SMILES,EC50 [17] [nM]
–,–,85,6,74,-3,49,38,-4,44,15.7,12,12,73,–,–,O=c1[nH]nc(-c2ccnc(NC3CCOCC3)c2)n1-c1ccc2ccccc2c1,–
–,–,24,7,-1,1,29,-1,-9,10,0.9,2.6,2.6,57,-5,-2,O=c1[nH]nc(-c2ccnc(NC3CCCCC3)c2)n1-c1ccc2ccccc2c1,> 50000
–,–,32,22,60,1,34,21,-5,30,–,–,–,–,-9,69,O=c1[nH]nc(-c2ccnc(NC3CCCOC3)c2)n1-c1ccc2ccccc2c1 (stereo unspecified),–

# Reference: ChEMBL document CHEMBL1641539 (Bioorg Med Chem Lett, 2011)
